In US12029748B2, “Synergistic composition for maintenance of healthy balance of microflora” (KIMBERLY-CLARK WORLDWIDE, INC., priority 2017, dated 2024):
Where a SMILES comes first, the peptide text is derived from it.

tested on: L. crispatus and E. coli; assay: Therapeutic Effect Protocol: L. crispatus / E. coli co-culture, ratio after 36 hours; format: cell-based, Lactobacillus crispatus; E. coli; conditions: nitrogen compound 0.10 wt/vol % with 1.0 wt/vol % α methyl-D glucoside (10:1); 36 hours anaerobic co-culture, 37° C.
Procedure: As used herein the term “therapeutic effect” refers to the ability of the compositions and formulations of the present invention to stimulate the growth of Lactobacillus relative E. coli measured according to the Therapeutic Effect Protocol described below. Generally, therapeutic effect is expressed as a ratio of Lactobacillus to E. coli and is desirably greater than about 2, more preferably greater than about 20 and more desirably greater than about 100.
The data in Table 1 was tested according to the Therapeutic Effect Protocol as described further herein. The nitrogen compounds were tested for their therapeutic efficacy at three different concentrations when combined with α methyl-D glucoside (1% wt/vol %). The concentrations of the nitrogen containing compounds that were tested were 1% wt/vol %, 0.5% wt/vol %, and 0.1% wt/vol %.
Colonies of L. crispatus and E. coli were prepared as follows. A colony of L. crispatus was transferred to 7 ml de Man, Rogosa & Sharpe (MRS) broth and incubated anaerobically (using BD GasPak EZ anaerobe container system with indicator) at 37° C. without shaking for 18-20 hours. A colony of E. coli was transferred to 5 ml Tryptic Soy Broth (TSB) and incubated aerobically (shaking at 100 rpm) at 37° C. for 18-20 hours.
Colonies were then inoculated as follows. Bacterial cultures were gently vortexed and 1 mL of each culture was transferred to a corresponding 2.0 mL micro-centrifuge tube and then centrifuged for two minutes at 14,500 rpm. The cultural supernatant was removed and the cell pellet was re-suspended in 1 mL of 0.95% (wt/vol %) saline. […] For L. crispatus, the pellet was re-suspended in 1 mL of 0.95% saline to achieve ˜10^7-10^8 cfu/mL. For E. coli, the pellet was re-suspended in 1 mL of 0.95% saline to achieve ˜10^8-10^9 cfu/mL.
Media were prepared as follows.
(§1) All of the ingredients in Table 2 were combined and the pH was adjusted to 6.5. […] To evaluate the effect of various nitrogen containing therapeutic agents on the growth of bacteria, the LAPT-g media, prepared as described above, was supplemented with various nitrogen containing compound therapeutic agents to a final test concentration between 0.1 and 1.0%. As initial screening measures, solubility and initial pH of each composition were checked. If a specific composition was insoluble (as detected by visual indication of precipitates or turbidity), then no further therapeutic efficacy testing was undertaken on that composition. Additionally, if the initial pH of the composition was below 5.5 (“Low”) or was above 6.5 (“High”), then no further therapeutic efficacy testing was undertaken on that composition.
Five milliliters (5 mL) of each medium was transferred to a test tube in duplicates for subsequent inoculation. A master mixture of L. crispatus and E. coli, prepared as described above, was prepared in 1,000:1 ratio. Each (5 ml) test tube was inoculated with the master mixture to give 10^5-10^6 total CFU L. crispatus and 100-1,000 total CFU E. coli per tube.
To establish a negative control, one tube was vortexed and 100 μL was removed to determine the initial cell concentrations by serial dilutions and plating (2 plates per dilution). L. crispatus is selected on MRS agar plates incubated anaerobically at 37° C. for two days. E. coli is selected on TSA plates incubated aerobically at 37° C. for one day. The co-cultures were incubated in an anaerobic container with BD GasPaks at 37° C. for 36 hours.
The effect of the α methyl-D glucoside and the nitrogen containing compound therapeutic agents on the ratio of L. crispatus to E. coli was measured 36 hours after inoculation and a final pH of the test solutions was recorded. The co-culture tube was vortexed and 100 μL was removed to determine the final cell concentrations by serial dilutions and plating (2 plates per dilution). L. crispatus is selected on MRS agar plates incubated anaerobically at 37° C. for two days.

SMILES	Therapeutic Efficacy Results (Lactobacillus/E. coli) 0.10%
C[C@H](N)C(=O)N[C@@H](Cc1cnc[nH]1)C(=O)O [Ala-His] (H-Ala-His-OH)	>133
C[C@@H](O)[C@H](N)C(=O)O [L-Threonine]	0.74
C[C@H](N)C(=O)N[C@H](C(=O)O)[C@@H](C)O [H-Ala-Thr-OH] (H-Ala-Thr-OH)	212
N[C@@H](CCO)C(=O)O [L-Homoserine]	>750
CSCC[C@H](N)C(=O)O [L-Methionine]	>1.71E+05

same assay, conditions: nitrogen compound 0.50 wt/vol % with 1.0 wt/vol % α methyl-D glucoside (2:1); 36 hours anaerobic co-culture, 37° C.

SMILES	Therapeutic Efficacy Results (Lactobacillus/E. coli) 0.50%
C[C@H](N)C(=O)N[C@@H](Cc1cnc[nH]1)C(=O)O [Ala-His] (H-Ala-His-OH)	6.59E+02
C[C@@H](O)[C@H](N)C(=O)O [L-Threonine]	1.13
C[C@H](N)C(=O)N[C@H](C(=O)O)[C@@H](C)O [H-Ala-Thr-OH] (H-Ala-Thr-OH)	>103
N[C@@H](CCO)C(=O)O [L-Homoserine]	0.66
CSCC[C@H](N)C(=O)O [L-Methionine]	0.78

same assay, conditions: nitrogen compound 1.00 wt/vol % with 1.0 wt/vol % α methyl-D glucoside (1:1); 36 hours anaerobic co-culture, 37° C.

SMILES	Therapeutic Efficacy Results (Lactobacillus/E. coli) 1.00%
C[C@@H](O)[C@H](N)C(=O)O [L-Threonine]	0.36
C[C@H](N)C(=O)N[C@H](C(=O)O)[C@@H](C)O [H-Ala-Thr-OH] (H-Ala-Thr-OH)	1.64
N[C@@H](CCO)C(=O)O [L-Homoserine]	0.33
CSCC[C@H](N)C(=O)O [L-Methionine]	0.75

same assay, conditions: with α methyl-D glucoside; ratio at least about 2:1, not 1:1

SMILES	Therapeutic effect when ratio α methyl-D glucoside : nitrogen compound is at least about 2:1, but not at 1:1
C[C@H](N)C(=O)N[C@@H](Cc1cnc[nH]1)C(=O)O [Ala-His] (H-Ala-His-OH)	provided a therapeutic effect
C[C@H](N)C(=O)N[C@H](C(=O)O)[C@@H](C)O [H-Ala-Thr-OH] (H-Ala-Thr-OH)	provided a therapeutic effect
N[C@@H](CCO)C(=O)O [L-Homoserine]	provided a therapeutic effect
CSCC[C@H](N)C(=O)O [L-Methionine]	provided a therapeutic effect

same assay, conditions: with α methyl-D glucoside; ratios 2:1 and 10:1, not 1:1

SMILES	Therapeutic effect at ratio 2:1 and 10:1, but not at 1:1
C[C@H](N)C(=O)N[C@@H](Cc1cnc[nH]1)C(=O)O [Ala-His] (H-Ala-His-OH)	provided a therapeutic effect
C[C@H](N)C(=O)N[C@H](C(=O)O)[C@@H](C)O [H-Ala-Thr-OH] (H-Ala-Thr-OH)	provided a therapeutic effect

tested on: not listed separately; assay: Initial pH screening of the composition; format: physicochemical; conditions: nitrogen compound 0.10 wt/vol % with 1.0 wt/vol % α methyl-D glucoside in medium
Text: Each composition in Table 1 went through initial screening measures of solubility and initial pH (“I pH”). […] When a specific concentration of a nitrogen containing compound was insoluble, the initial and final pH (“F pH”) of the combined composition was not measured and accordingly are each marked as “NM.” Additionally, initial pH of the composition was checked as a screening measure. The initial pH was marked as either Low (“L”), High (“H”), or Pass (“P”). A Low initial pH corresponds to an initial pH being less than 5.5, a High initial pH corresponds to an initial pH being greater than 6.5, and a Pass initial pH corresponds to the pH being at or between 5.5-6.5. […] As part of the Therapeutic Effect Protocol, a final pH was also measured after the compositions that were tested against the Lactobacillus and E. coli.
as §1

SMILES	I pH (initial pH), 0.10%
C[C@H](N)C(=O)N[C@@H](Cc1cnc[nH]1)C(=O)O [Ala-His] (H-Ala-His-OH)	P (a Pass initial pH corresponds to the pH being at or between 5.5-6.5)
C[C@@H](O)[C@H](N)C(=O)O [L-Threonine]	P (a Pass initial pH corresponds to the pH being at or between 5.5-6.5)
C[C@H](N)C(=O)N[C@H](C(=O)O)[C@@H](C)O [H-Ala-Thr-OH] (H-Ala-Thr-OH)	P (a Pass initial pH corresponds to the pH being at or between 5.5-6.5)
N[C@@H](CCO)C(=O)O [L-Homoserine]	P (a Pass initial pH corresponds to the pH being at or between 5.5-6.5)
CSCC[C@H](N)C(=O)O [L-Methionine]	P (a Pass initial pH corresponds to the pH being at or between 5.5-6.5)

same assay, conditions: nitrogen compound 0.50 wt/vol % with 1.0 wt/vol % α methyl-D glucoside in medium

SMILES	I pH (initial pH), 0.50%
C[C@H](N)C(=O)N[C@@H](Cc1cnc[nH]1)C(=O)O [Ala-His] (H-Ala-His-OH)	P (a Pass initial pH corresponds to the pH being at or between 5.5-6.5)
C[C@@H](O)[C@H](N)C(=O)O [L-Threonine]	P (a Pass initial pH corresponds to the pH being at or between 5.5-6.5)
C[C@H](N)C(=O)N[C@H](C(=O)O)[C@@H](C)O [H-Ala-Thr-OH] (H-Ala-Thr-OH)	P (a Pass initial pH corresponds to the pH being at or between 5.5-6.5)
N[C@@H](CCO)C(=O)O [L-Homoserine]	P (a Pass initial pH corresponds to the pH being at or between 5.5-6.5)
CSCC[C@H](N)C(=O)O [L-Methionine]	P (a Pass initial pH corresponds to the pH being at or between 5.5-6.5)

same assay, conditions: nitrogen compound 1.00 wt/vol % with 1.0 wt/vol % α methyl-D glucoside in medium

SMILES	I pH (initial pH), 1.00%
C[C@H](N)C(=O)N[C@@H](Cc1cnc[nH]1)C(=O)O [Ala-His] (H-Ala-His-OH)	H (a High initial pH corresponds to an initial pH being greater than 6.5)
C[C@@H](O)[C@H](N)C(=O)O [L-Threonine]	P (a Pass initial pH corresponds to the pH being at or between 5.5-6.5)
C[C@H](N)C(=O)N[C@H](C(=O)O)[C@@H](C)O [H-Ala-Thr-OH] (H-Ala-Thr-OH)	P (a Pass initial pH corresponds to the pH being at or between 5.5-6.5)
N[C@@H](CCO)C(=O)O [L-Homoserine]	P (a Pass initial pH corresponds to the pH being at or between 5.5-6.5)
CSCC[C@H](N)C(=O)O [L-Methionine]	P (a Pass initial pH corresponds to the pH being at or between 5.5-6.5)
